# Data: ChEMBL document CHEMBL4507261, “Data for DCP probe A-192621” (2021)
# What was measured:
# [1] = target: MAO-B (amine oxidase [flavin-containing] B) (Homo sapiens, UniProt P27338); test: MAO-B (h) recombinant enzyme Eurofins-Cerep enzyme and uptake assay; parameters: incubation time 60 min, incubation temperature 37°C, substrate/stimulus/tracer D-Luciferin derivative (4 µM); settings: probe D-Luciferin derivative (4 µM), compound concentration 10 uM, read-out: % Inhibition of Control Values (Mean n=2)
# [2] = target: D(2) dopamine receptor (Homo sapiens) (UniProt P14416); test: D2S (h) Eurofins-Cerep binding assay; parameters: ligand concentration 0.3 nM; settings: filed as antagonist, Compound concentration 10.0 uM
# [3] = target: GABA-A receptor; alpha-1/beta-2/gamma-2 (Homo sapiens) (UniProt P14867+P47870+P18507); test: GABAA1 (h) (alpha1,beta2,gamma2) Eurofins-Cerep binding assay; type: protein-complex assay; parameters: ligand concentration 15 nM; settings: filed as agonist, Compound concentration 10.0 uM
# [4] = target: Neuropeptide Y receptor type 1 (Homo sapiens) (UniProt P25929); test: Y1 (h) Eurofins-Cerep binding assay; parameters: ligand concentration 0.025 nM; settings: filed as agonist, Compound concentration 10.0 uM
# [5] = target: Delta-type opioid receptor (Homo sapiens) (UniProt P41143); test: delta (DOP) (h) Eurofins-Cerep binding assay; parameters: ligand concentration 0.5 nM; settings: filed as agonist, Compound concentration 10.0 uM
# [6] = target: Glucocorticoid receptor (Homo sapiens) (UniProt P04150); test: GR (h) Eurofins-Cerep binding assay; parameters: ligand concentration 1.5 nM; settings: filed as agonist, Compound concentration 10.0 uM
# [7] = target: voltage-gated L-type Ca2+ channel (diltiazem site, benzothiazepines) (Rattus norvegicus, UniProt P22002+P27732+Q02485); test: Ca2+ channel (L, diltiazem site) (benzothiazepines) Eurofins-Cerep binding assay; parameters: incubation time 120 min, incubation temperature RT, ligand concentration 15 nM; settings: rat cerebral cortex (source of protein), probe [3H]diltiazem (15 nM), compound concentration 10 uM, read-out: % Inhibition of Control Specific Binding (Mean n=2)
# [8] = target: voltage-gated Na+ channel (site 2) (Rattus norvegicus, UniProt F1LQQ7+O08562+O88420+O88457+P04774+P04775+P08104+P15389+P15390+Q62968); test: Na+ channel (site 2) Eurofins-Cerep binding assay; parameters: incubation time 60 min, incubation temperature 37°C, ligand concentration 10 nM; settings: rat cerebral cortex (source of protein), probe [3H]batrachotoxin (10 nM), compound concentration 10 uM, read-out: % Inhibition of Control Specific Binding (Mean n=2)
# [9] = test system: Tyrosine-protein kinase ABL1 (Homo sapiens), P00519 [M351T]; settings: Compound concentration 1000.0 nM
# [10] = test system: ALK tyrosine kinase receptor (Homo sapiens), Q9UM73 [C1156Y]; settings: Compound concentration 1000.0 nM
# [11] = target: Aurora kinase A (Homo sapiens) (UniProt O14965); settings: Compound concentration 1000.0 nM
# [12] = target: Cyclin-dependent kinase 2 (Homo sapiens) (UniProt P24941); settings: Compound concentration 1000.0 nM
# [13] = target: Cyclin-dependent kinase 4 (Homo sapiens) (UniProt P11802); settings: Compound concentration 1000.0 nM
# [14] = target: Dual specificity protein kinase CLK1 (Homo sapiens) (UniProt P49759); settings: Compound concentration 1000.0 nM
# [15] = target: Dual specificity protein kinase CLK2 (Homo sapiens) (UniProt P49760); settings: Compound concentration 1000.0 nM
# [16] = target: Casein kinase II subunit alpha (Homo sapiens) (UniProt P68400); settings: Compound concentration 1000.0 nM
# [17] = test system: Epidermal growth factor receptor (Homo sapiens), P00533 [UNDEFINED MUTATION]; settings: Compound concentration 1000.0 nM
# [18] = target: Ephrin type-A receptor 2 (Homo sapiens) (UniProt P29317); settings: Compound concentration 1000.0 nM
# [19] = target: Ephrin type-A receptor 3 (Homo sapiens) (UniProt P29320); settings: Compound concentration 1000.0 nM
# [20] = target: Receptor tyrosine-protein kinase erbB-4 (Homo sapiens) (UniProt Q15303); settings: Compound concentration 1000.0 nM
# [21] = target: Focal adhesion kinase 1 (Homo sapiens) (UniProt Q05397); settings: Compound concentration 1000.0 nM
# [22] = test system: Receptor-type tyrosine-protein kinase FLT3 (Homo sapiens), P36888 [UNDEFINED MUTATION]; settings: Compound concentration 1000.0 nM
# [23] = test system: Receptor-type tyrosine-protein kinase FLT3 (Homo sapiens), P36888 [UNDEFINED MUTATION]; settings: Compound concentration 1000.0 nM; remark: listed apart in the source
# [24] = target: Mast/stem cell growth factor receptor Kit (Homo sapiens) (UniProt P10721); settings: Compound concentration 1000.0 nM
# [25] = target: Serine/threonine-protein kinase STK11 (Homo sapiens) (UniProt Q15831); settings: Compound concentration 1000.0 nM
# [26] = target: Serine/threonine-protein kinase MARK2 (Homo sapiens) (UniProt Q7KZI7); settings: Compound concentration 1000.0 nM
# [27] = target: Dual specificity mitogen-activated protein kinase kinase 7 (Homo sapiens) (UniProt O14733); settings: Compound concentration 1000.0 nM
# [28] = target: MAP kinase-interacting serine/threonine-protein kinase 1 (Homo sapiens) (UniProt Q9BUB5); settings: Compound concentration 1000.0 nM
# [29] = target: Macrophage-stimulating protein receptor (Homo sapiens) (UniProt Q04912); settings: Compound concentration 1000.0 nM
# [30] = target: Myosin-IIIb (Homo sapiens) (UniProt Q8WXR4); settings: Compound concentration 1000.0 nM
# [31] = target: Serine/threonine-protein kinase Nek2 (Homo sapiens) (UniProt P51955); settings: Compound concentration 1000.0 nM
# [32] = target: Serine/threonine-protein kinase pim-1 (Homo sapiens) (UniProt P11309); settings: Compound concentration 1000.0 nM
# [33] = target: Serine/threonine-protein kinase PLK3 (Homo sapiens) (UniProt Q9H4B4); settings: Compound concentration 1000.0 nM
# [34] = target: Protein kinase C delta type (Homo sapiens) (UniProt Q05655); settings: Compound concentration 1000.0 nM
# [35] = target: cGMP-dependent protein kinase 1 (Homo sapiens) (UniProt Q13976); settings: Compound concentration 1000.0 nM
# [36] = target: Serine/threonine-protein kinase RIO2 (Homo sapiens) (UniProt Q9BVS4); settings: Compound concentration 1000.0 nM
# [37] = target: Serine/threonine-protein kinase RIO3 (Homo sapiens) (UniProt O14730); settings: Compound concentration 1000.0 nM
# [38] = target: Ribosomal protein S6 kinase alpha-2 (Homo sapiens) (UniProt Q15349); settings: Compound concentration 1000.0 nM
# [39] = target: Activated CDC42 kinase 1 (Homo sapiens) (UniProt Q07912); settings: Compound concentration 1000.0 nM
# [40] = target: Serine/threonine-protein kinase ULK2 (Homo sapiens) (UniProt Q8IYT8); settings: Compound concentration 1000.0 nM
# [41] = target: Vascular endothelial growth factor receptor 2 (Homo sapiens) (UniProt P35968); settings: Compound concentration 1000.0 nM
# Receptor-type tyrosine-protein kinase FLT3 (Homo sapiens), P36888 [UNDEFINED MUTATION], sequence (P36888 whole entry, looked up, change not shown): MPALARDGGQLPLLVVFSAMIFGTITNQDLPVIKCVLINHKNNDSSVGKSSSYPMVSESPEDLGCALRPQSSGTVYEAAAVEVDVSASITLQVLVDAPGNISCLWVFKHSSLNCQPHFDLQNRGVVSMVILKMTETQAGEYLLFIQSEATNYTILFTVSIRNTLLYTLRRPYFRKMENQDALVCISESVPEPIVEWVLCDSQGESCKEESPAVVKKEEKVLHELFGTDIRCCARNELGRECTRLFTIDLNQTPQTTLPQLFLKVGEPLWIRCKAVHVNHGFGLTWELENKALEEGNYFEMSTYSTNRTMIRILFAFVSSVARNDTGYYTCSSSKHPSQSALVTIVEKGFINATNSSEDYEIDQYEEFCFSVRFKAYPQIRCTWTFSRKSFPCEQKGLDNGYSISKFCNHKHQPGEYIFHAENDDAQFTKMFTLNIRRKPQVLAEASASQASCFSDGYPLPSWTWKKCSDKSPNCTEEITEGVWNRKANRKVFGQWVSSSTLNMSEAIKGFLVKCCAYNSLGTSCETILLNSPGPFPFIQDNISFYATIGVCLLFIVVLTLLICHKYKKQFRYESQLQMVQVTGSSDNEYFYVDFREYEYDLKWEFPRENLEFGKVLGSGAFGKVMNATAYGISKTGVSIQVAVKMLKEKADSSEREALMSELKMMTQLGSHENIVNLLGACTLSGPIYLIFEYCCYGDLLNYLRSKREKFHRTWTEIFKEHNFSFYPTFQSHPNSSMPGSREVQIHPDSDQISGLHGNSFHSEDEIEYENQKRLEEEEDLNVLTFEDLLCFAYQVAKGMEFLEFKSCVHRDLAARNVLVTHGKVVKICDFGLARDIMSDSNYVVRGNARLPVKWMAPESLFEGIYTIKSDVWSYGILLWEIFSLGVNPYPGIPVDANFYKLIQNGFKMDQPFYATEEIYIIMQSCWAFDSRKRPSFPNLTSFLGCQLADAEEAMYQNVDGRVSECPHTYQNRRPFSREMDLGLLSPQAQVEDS
# Ephrin type-A receptor 3 (Homo sapiens), sequence (P29320 whole entry): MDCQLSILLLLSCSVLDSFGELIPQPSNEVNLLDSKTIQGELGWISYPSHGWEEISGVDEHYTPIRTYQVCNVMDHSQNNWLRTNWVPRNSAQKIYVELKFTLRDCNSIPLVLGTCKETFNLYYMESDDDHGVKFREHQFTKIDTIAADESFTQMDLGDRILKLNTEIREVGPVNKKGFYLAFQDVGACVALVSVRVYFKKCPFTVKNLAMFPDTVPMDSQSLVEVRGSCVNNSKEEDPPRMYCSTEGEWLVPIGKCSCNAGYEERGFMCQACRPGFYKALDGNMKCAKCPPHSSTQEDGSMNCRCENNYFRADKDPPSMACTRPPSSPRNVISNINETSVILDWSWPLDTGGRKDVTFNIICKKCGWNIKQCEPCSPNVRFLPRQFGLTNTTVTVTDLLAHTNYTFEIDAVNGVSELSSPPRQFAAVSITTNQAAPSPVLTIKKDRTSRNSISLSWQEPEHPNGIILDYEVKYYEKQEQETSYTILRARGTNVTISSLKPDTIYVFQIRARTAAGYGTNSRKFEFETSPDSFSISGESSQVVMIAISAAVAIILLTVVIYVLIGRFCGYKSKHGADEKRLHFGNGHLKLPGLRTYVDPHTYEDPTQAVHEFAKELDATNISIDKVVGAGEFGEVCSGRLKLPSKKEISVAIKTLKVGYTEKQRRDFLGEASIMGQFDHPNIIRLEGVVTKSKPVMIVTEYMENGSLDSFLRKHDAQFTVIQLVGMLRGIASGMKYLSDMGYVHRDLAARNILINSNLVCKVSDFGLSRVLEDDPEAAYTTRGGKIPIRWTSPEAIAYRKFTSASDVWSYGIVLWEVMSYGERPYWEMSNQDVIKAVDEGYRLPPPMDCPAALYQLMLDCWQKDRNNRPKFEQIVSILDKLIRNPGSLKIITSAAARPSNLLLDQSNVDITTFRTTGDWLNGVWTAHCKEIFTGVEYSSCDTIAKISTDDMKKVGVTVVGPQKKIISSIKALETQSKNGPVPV
# Epidermal growth factor receptor (Homo sapiens), P00533 [UNDEFINED MUTATION], sequence (P00533 whole entry, looked up, change not shown): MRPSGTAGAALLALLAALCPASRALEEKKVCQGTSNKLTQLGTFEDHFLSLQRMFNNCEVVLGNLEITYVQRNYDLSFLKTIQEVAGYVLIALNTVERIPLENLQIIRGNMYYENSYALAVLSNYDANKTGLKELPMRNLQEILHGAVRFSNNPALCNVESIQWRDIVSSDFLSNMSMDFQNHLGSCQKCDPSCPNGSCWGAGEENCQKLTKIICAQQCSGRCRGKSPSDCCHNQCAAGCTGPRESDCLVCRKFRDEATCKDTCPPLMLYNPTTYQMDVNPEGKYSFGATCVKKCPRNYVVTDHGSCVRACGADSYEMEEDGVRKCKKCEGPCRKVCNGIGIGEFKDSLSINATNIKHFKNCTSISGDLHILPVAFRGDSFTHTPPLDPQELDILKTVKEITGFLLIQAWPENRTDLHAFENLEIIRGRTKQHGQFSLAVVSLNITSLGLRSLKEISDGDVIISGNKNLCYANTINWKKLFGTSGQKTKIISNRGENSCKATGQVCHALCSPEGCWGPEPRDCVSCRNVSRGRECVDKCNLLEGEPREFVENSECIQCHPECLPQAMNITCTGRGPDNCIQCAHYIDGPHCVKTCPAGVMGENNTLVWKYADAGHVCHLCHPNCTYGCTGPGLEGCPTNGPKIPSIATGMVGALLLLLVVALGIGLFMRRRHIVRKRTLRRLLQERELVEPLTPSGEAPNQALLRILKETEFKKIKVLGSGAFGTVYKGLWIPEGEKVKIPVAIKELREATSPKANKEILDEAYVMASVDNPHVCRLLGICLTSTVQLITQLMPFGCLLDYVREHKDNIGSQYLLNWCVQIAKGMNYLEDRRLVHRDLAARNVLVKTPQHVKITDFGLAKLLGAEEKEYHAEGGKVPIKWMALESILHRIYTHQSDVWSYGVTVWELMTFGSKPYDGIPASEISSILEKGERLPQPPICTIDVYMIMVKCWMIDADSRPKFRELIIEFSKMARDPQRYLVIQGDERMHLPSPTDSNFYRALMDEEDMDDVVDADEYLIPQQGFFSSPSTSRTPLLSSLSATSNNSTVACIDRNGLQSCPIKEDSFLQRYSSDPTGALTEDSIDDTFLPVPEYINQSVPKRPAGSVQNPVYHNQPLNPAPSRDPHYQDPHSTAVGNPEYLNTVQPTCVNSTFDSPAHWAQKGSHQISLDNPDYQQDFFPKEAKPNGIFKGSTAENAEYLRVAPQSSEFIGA
# Macrophage-stimulating protein receptor (Homo sapiens), sequence (Q04912 25-304 limits assumed): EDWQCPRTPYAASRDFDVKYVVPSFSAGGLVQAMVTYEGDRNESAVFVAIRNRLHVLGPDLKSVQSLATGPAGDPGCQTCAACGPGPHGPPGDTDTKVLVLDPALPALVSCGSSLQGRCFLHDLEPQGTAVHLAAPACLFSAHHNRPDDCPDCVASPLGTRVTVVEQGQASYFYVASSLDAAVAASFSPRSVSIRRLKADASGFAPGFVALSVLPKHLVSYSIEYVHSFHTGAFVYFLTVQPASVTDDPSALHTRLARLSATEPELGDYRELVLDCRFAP
# Macrophage-stimulating protein receptor (Homo sapiens), sequence (Q04912 310-1400 limits assumed): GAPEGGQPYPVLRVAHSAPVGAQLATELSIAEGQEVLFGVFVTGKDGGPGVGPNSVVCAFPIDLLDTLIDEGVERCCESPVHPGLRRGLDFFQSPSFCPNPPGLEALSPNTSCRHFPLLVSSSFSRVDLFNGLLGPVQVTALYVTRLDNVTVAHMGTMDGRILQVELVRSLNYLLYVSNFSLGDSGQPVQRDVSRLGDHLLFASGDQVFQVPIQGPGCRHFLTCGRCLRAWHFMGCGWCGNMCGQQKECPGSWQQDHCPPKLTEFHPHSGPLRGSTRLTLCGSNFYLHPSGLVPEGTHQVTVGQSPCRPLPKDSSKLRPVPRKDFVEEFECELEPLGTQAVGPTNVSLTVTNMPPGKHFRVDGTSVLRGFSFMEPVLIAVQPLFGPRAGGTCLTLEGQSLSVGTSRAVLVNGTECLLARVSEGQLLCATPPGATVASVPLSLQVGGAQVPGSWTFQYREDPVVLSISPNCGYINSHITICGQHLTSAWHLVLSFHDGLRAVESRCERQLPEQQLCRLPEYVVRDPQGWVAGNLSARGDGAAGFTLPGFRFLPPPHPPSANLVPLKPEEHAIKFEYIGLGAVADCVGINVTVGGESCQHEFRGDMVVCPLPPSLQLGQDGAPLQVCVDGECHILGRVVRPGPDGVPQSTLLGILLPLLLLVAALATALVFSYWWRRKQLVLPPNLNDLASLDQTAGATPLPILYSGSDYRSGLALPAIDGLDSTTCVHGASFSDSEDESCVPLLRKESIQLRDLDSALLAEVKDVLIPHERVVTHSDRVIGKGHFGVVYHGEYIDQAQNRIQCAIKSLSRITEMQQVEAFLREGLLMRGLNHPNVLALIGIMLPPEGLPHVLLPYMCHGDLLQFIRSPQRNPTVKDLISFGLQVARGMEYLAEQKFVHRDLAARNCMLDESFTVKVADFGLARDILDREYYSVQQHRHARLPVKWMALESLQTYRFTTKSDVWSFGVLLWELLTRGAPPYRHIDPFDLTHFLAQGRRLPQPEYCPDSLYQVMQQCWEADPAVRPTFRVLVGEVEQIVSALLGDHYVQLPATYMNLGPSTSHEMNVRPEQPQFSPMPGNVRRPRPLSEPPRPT
# Neuropeptide Y receptor type 1 (Homo sapiens), sequence (P25929 whole entry): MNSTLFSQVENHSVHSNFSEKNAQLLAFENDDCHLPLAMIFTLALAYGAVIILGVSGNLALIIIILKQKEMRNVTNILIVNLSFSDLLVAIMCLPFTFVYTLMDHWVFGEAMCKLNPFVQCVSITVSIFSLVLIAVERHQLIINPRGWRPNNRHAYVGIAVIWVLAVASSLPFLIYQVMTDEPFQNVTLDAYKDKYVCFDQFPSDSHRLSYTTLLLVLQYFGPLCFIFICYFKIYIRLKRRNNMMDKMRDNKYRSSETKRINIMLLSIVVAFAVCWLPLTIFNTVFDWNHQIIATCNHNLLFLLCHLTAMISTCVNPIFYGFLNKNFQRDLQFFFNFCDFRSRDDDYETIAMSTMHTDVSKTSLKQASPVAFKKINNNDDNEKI
structure (smiles),measurement,setting,value
CCCOc1ccc([C@H]2[C@H](C(=O)O)[C@@H](c3ccc4c(c3)OCO4)CN2CC(=O)Nc2c(CC)cccc2CC)cc1 [A-192621],"inhibition at 60 min, 10 µM",[1],-12.3%
same,% Inhibition of Control Specific Binding (Mean n=2),[2],2.6%
same,% Inhibition of Control Specific Binding (Mean n=2),[3],-34%
same,% Inhibition of Control Specific Binding (Mean n=2),[4],-9.3%
same,% Inhibition of Control Specific Binding (Mean n=2),[5],33.5%
same,% Inhibition of Control Specific Binding (Mean n=2),[6],7%
same,"inhibition at 120 min, 10 µM",[7],4.2%
same,"inhibition at 60 min, 10 µM",[8],29.1%
same,residual activity,[9],69%
same,residual activity,[10],98%
same,residual activity,[11],93%
same,residual activity,[12],87%
same,residual activity,[13],100%
same,residual activity,[14],87%
same,residual activity,[15],91%
same,residual activity,[16],69%
same,residual activity,[17],81%
same,residual activity,[18],100%
same,residual activity,[19],86%
same,residual activity,[20],100%
same,residual activity,[21],86%
same,residual activity,[22],59%
same,residual activity,[23],13%
same,residual activity,[24],85%
same,residual activity,[25],88%
same,residual activity,[26],88%
same,residual activity,[27],74%
same,residual activity,[28],65%
same,residual activity,[29],86%
same,residual activity,[30],66%
same,residual activity,[31],90%
same,residual activity,[32],85%
same,residual activity,[33],83%
same,residual activity,[34],100%
same,residual activity,[35],88%
same,residual activity,[36],71%
same,residual activity,[37],100%
same,residual activity,[38],82%
same,residual activity,[39],100%
same,residual activity,[40],55%
same,residual activity,[41],77%
CCCOc1ccc([C@@H]2[C@@H](C(=O)O)[C@H](c3ccc4c(c3)OCO4)CN2CC(=O)Nc2c(CC)cccc2CC)cc1 [A-1806262],"inhibition at 60 min, 10 µM",[1],-14.5%
same,% Inhibition of Control Specific Binding (Mean n=2),[2],1.8%
same,% Inhibition of Control Specific Binding (Mean n=2),[3],-33.6%
same,% Inhibition of Control Specific Binding (Mean n=2),[4],-5.6%
same,% Inhibition of Control Specific Binding (Mean n=2),[5],23.5%
same,% Inhibition of Control Specific Binding (Mean n=2),[6],4.1%
same,"inhibition at 120 min, 10 µM",[7],15.4%
same,"inhibition at 60 min, 10 µM",[8],24.4%
same,residual activity,[9],80%
same,residual activity,[10],79%
same,residual activity,[11],94%
same,residual activity,[12],87%
same,residual activity,[13],84%
same,residual activity,[14],93%
same,residual activity,[15],100%
same,residual activity,[16],100%
same,residual activity,[17],58%
same,residual activity,[18],100%
same,residual activity,[19],99%
same,residual activity,[20],100%
same,residual activity,[21],88%
same,residual activity,[22],61%
same,residual activity,[23],63%
same,residual activity,[24],90%
same,residual activity,[25],100%
same,residual activity,[26],92%
same,residual activity,[27],91%
same,residual activity,[28],73%
same,residual activity,[29],91%
same,residual activity,[30],52%
same,residual activity,[31],97%
same,residual activity,[32],89%
same,residual activity,[33],88%
same,residual activity,[34],100%
same,residual activity,[35],97%
same,residual activity,[36],98%
same,residual activity,[37],100%
same,residual activity,[38],81%
same,residual activity,[39],90%
same,residual activity,[40],76%
same,residual activity,[41],72%
